Data published in article PMC6934184, “Selective DNA-PKcs inhibition extends the therapeutic index of localized radiotherapy and chemotherapy” (The Journal of Clinical Investigation, 2019).

Target: T1, PIK3C2A (PI3K-C2 alpha) (Homo sapiens, UniProt O00443)
T1 construct: purchased Thermo Fisher Scientific (Life Technologies) SelectScreen
Assay: SelectScreen Adapta
Type: biochemical
Method in brief: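 SelectScreen broad panel; activity (Z'LYTE, Adapta) plus binding formats. ATP: Km app for CSF1R Z'LYTE; 10 for CAMK1 Adapta. Readout = % per kinase.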

T1 sequence (O00443 whole entry): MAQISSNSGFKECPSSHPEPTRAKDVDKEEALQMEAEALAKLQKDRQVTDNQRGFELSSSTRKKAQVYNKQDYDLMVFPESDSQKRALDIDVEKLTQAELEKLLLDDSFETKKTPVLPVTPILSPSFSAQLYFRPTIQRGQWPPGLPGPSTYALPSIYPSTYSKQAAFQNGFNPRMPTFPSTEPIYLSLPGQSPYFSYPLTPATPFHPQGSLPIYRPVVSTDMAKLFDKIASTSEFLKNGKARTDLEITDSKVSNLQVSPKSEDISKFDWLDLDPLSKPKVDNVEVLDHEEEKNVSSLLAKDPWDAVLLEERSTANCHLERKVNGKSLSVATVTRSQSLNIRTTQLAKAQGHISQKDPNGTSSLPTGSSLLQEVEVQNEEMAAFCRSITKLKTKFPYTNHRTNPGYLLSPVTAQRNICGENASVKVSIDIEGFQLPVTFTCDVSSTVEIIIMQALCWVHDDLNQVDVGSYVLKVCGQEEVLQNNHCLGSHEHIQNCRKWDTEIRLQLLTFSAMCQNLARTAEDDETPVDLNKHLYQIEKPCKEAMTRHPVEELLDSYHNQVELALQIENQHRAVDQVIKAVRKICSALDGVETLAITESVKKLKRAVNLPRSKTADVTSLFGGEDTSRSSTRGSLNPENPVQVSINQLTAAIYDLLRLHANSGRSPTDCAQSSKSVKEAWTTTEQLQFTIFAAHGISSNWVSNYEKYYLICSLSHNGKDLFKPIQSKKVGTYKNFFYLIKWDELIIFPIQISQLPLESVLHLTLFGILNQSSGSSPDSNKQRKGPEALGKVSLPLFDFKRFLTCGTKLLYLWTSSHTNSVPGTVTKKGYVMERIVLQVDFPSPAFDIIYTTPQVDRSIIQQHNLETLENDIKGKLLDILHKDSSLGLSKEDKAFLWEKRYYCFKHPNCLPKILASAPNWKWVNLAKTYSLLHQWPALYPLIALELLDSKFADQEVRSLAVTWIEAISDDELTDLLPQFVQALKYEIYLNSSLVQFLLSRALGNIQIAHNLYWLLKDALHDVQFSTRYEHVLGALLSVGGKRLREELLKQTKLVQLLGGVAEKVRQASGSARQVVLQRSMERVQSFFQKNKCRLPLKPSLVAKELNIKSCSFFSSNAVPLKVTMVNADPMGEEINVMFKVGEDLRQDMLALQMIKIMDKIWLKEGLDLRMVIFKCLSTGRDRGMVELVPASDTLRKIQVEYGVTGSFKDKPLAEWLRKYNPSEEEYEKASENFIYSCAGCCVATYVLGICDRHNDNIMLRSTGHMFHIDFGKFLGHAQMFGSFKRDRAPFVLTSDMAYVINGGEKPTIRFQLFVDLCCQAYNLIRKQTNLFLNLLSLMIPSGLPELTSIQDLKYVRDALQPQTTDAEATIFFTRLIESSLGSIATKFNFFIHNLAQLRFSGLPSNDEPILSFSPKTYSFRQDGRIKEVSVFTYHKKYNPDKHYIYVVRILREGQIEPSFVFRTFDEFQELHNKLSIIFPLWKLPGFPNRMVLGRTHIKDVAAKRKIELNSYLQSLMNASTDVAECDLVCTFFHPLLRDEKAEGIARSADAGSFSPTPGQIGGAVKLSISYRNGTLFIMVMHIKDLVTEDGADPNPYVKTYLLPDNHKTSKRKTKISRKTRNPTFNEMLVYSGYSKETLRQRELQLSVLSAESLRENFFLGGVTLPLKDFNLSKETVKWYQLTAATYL

`CN(C(=O)CN1CCOCC1)c1ccc2sc3c(-c4cccc5c(=O)cc(N6CC7CCC(C6)O7)oc45)cccc3c2c1` [NU5455] showed an inhibition at 1 µM of 1.3%.
